Patent publication US20070207996A1, “Novel Compositions And Methods Of Treatment” (priority 2004, published 2007)

Columns and labels:
[1] = test system: P388 lymphocytic leukemia; assay: Drug combination efficacy study in advanced systemic P388 lymphocytic leukemia model; format: in vivo, mice
Experimental: (§1) Female B6D2F1 mice (Charles River Laboratories, Raleigh, N.C.) were used in these studies. All procedures were performed in accordance with protocols approved by the SB Institutional Animal Care and Use Committee, and met or exceeded the standards of the American Association for the Accreditation of Laboratory Animal Care (AAALAC), the United States Department of Health and Human Services and all local and federal animal welfare laws.
(§2) MAP and PCR tested P388 lymphocytic leukemia cell lines obtained originally from the National Cancer Institute Repository at Frederick Cancer Research Center, Frederick, Md., were used in these studies. P388 lymphocytic leukemia were maintained by serial i.p. transplantation in syngeneic B6D2F1 mice. […] Protocols for screening chemical agents and natural products against animal tumors and other biological systems. Cancer Chemother. […] All tumor tissues are presently in cryopreservation within the department of Molecular and Cellular Oncology.
(§3) For efficacy studies, P388 lymphocytic leukemia were harvested aseptically from the peritoneal cavity of donor mice, pooled, diluted with Earle's Balanced Salt Solution and trypan blue, and counted using a hemocytometer. An inoculum of 0.2 ml (5×10^6/ml) was implanted i.v. in the lateral tail vein of female BDF1 mice using a 25 gauge needle. The tumor inoculum was tested for bacterial contamination as determined by a 24-hr incubation in thioglycollate broth.
(§4) Each experiment included two groups of untreated tumor-bearing controls, and a titration of tumor cells in untreated animals (ranging from 10^1 to 10^5 so that drug-induced cell kill (NCK) could be calculated. Drug treatment was initiated 48 hrs after tumor implantation. Specific endpoints calculated from this model are % increase in median lifespan (% ILS) relative to the untreated control animals and log net change in tumor cell burden following therapy (NCK).

[2] = test system: MX-1 breast carcinoma
[3] = in vivo; settings: mouse
[4] = Drug combination efficacy study in advanced systemic P388 lymphocytic leukemia model; format: in vivo, mice; settings: female, B6D2F1, mouse, in vivo
Experimental: as §1, §2, §3, §4

[5] = First Time in Human Study of Compound A, monotherapy once every 21 days; format: in vivo; settings: once every 21 day schedule, prior study in humans
[6] = doxorubicin alone 12 mg/kg, ip Days 2, 6, 10
[7] = cisplatin alone 4 mg/kg, ip q4dx3, first cisplatin study
[8] = cisplatin alone 4 mg/kg, repeat cisplatin study
[9] = ip, single agent, ip Days 2, 6, 10, gemcitabine study, read-out: MTD
[10] = ip, single agent, ip q4dx3 Days 2, 6, 10, irinotecan study, read-out: MTD
[11] = Compound A 2.6 mg/kg alone, ip Days 2, 6, 10, 5FU study
[12] = Compound A 4.3 mg/kg alone, ip Days 2, 6, 10, 5FU study
[13] = Compound A alone 4.3 mg/kg (MTD), ip q4dx3, first cisplatin study
[14] = Compound A alone 4.3 mg/kg (MTD), doxorubicin study
[15] = Compound A alone 6 mg/kg (MTD), irinotecan study
[16] = Compound A alone 7.2 mg/kg (MTD), repeat cisplatin study
[17] = Compound A alone 10 mg/kg, gemcitabine study
[18] = irinotecan alone 54 mg/kg, ip q4dx3
[19] = irinotecan alone 150 mg/kg (MTD), ip q4dx3
[20] = 5FU 26 mg/kg alone, ip Days 2, 6, 10
[21] = 5FU 43 mg/kg alone, ip Days 2, 6, 10
[22] = 5FU 72 mg/kg alone, ip Days 2, 6, 10
[23] = 5FU 120 mg/kg alone, ip Days 2, 6, 10
[24] = gemcitabine alone 200 mg/kg, ip Days 2, 6, 10

COc1cccc2c1C(=O)c1c(O)c3c(c(O)c1C2=O)C[C@@](O)(C(=O)CO)C[C@@H]3O[C@H]1C[C@H](N)[C@H](O)[C@H](C)O1 [Doxorubicin, doxorubicin, reference compound]
% ILS (increase in life span) [1, 6]: 89% | log cell kill (net cell kill) [1, 6]: no log cell kill

CCCCCOC(=O)Nc1nc(=O)n([C@@H]2O[C@H](C)[C@@H](O)[C@H]2O)cc1F [CAP, Capecitabine, reference compound]
MX-1 tumor growth ([2]; CAP alone 500 and 250 mg/kg, daily for two 5 day cycles with 2 day rest): slight delay in MX-1 tumor growth | MTD [3]: 500 mg/kg

N.N.[Cl][Pt][Cl] [Cisplatin, cisplatin, reference compound]
% ILS (increase in life span) [1, 7]: 200% | log cell kill (net cell kill) [1, 7]: 3.7 log | % ILS (increase in life span) [1, 8]: 133% | log cell kill (net cell kill) [1, 8]: 1.7 log

CS(=O)(=O)O.Cc1ccc(C(=O)N(CCCN)[C@@H](c2nc3cc(Cl)ccc3c(=O)n2Cc2ccccc2)C(C)C)cc1 [Compound A, N-(3-aminopropyl)-N-[(1R)-1-[7-chloro-3,4-dihydro-4-oxo-3-(phenylmethyl)-2-quinazolinyl]-2-methylpropyl]-4-methylbenzamide, mesylate salt]
MTD ([4]; intraperitoneal, increased from 7.2 alone, repeat cisplatin study, read-out: MTD of Compound A in combination with cisplatin): 12 mg/kg | MTD ([4]; ip, single agent, ip Days 2, 6, 10, doxorubicin study, read-out: MTD): 4.3 mg/kg | MTD [4, 9]: ≥ 10 mg/kg | MTD ([4]; ip, single agent, ip q4dx3, 5FU study, read-out: MTD): 7.2 mg/kg | MTD ([4]; ip, single agent, ip q4dx3, first cisplatin study, read-out: MTD): 4.3 mg/kg | MTD ([4]; ip, single agent, ip q4dx3, repeat cisplatin study, read-out: MTD): 7.2 mg/kg | MTD [4, 10]: 6 mg/kg | % ILS [1, 11]: 78% | Net Cell Kill [1, 11]: [0] log | % ILS [1, 12]: 122% | Net Cell Kill [1, 12]: [1.1] log | % ILS ([1]; Compound A 7.2 mg/kg (MTD) alone, ip Days 2, 6, 10, 5FU study): 178% | toxicity at dose level ([1]; Compound A 12 mg/kg alone, ip Days 2, 6, 10, 5FU study): Toxic | toxicity at dose level ([1]; Compound A 20 mg/kg alone, ip Days 2, 6, 10, 5FU study): Toxic | % ILS (increase in life span) [1, 13]: 144% | log cell kill (net cell kill) [1, 13]: 1.8 log | % ILS (increase in life span) [1, 14]: 156% | log cell kill (net cell kill) [1, 14]: 1.3 log | % ILS (increase in life span) [1, 15]: 167% | log cell kill (net cell kill) [1, 15]: 3.0 log | % ILS (increase in life span) [1, 16]: 144% | log cell kill (net cell kill) [1, 16]: 2.2 log | % ILS (increase in life span) [1, 17]: 211% | log cell kill (net cell kill) [1, 17]: 6.2 log | MTD of Compound A in combination versus alone ([1]; combined with 0.86 or 1.44 mg/kg cisplatin, first cisplatin study): higher MTD | MTD [5]: 18 mg/m^2 | activity against MX-1 ([2]; Compound A alone at MTD of 10 mg/kg, q4dx3): refractory | MTD [3]: 10 mg/kg

CCc1c2c(nc3ccc(OC(=O)N4CCC(N5CCCCC5)CC4)cc13)-c1cc3c(c(=O)n1C2)COC(=O)[C@]3(O)CC [Irinotecan, irinotecan, reference compound]
MTD [4, 10]: 150 mg/kg | % ILS (increase in life span) [1, 18]: 211% | log cell kill (net cell kill) [1, 18]: 4.8 log | % ILS (increase in life span) [1, 19]: > 450% | log cell kill (net cell kill) [1, 19]: > 6.9 log

O=c1[nH]cc(F)c(=O)[nH]1 [Compound 5FU, 5-fluorouracil, reference compound]
% ILS [1, 20]: 33% | Net Cell Kill [1, 20]: [0] log | % ILS [1, 21]: 55% | Net Cell Kill [1, 21]: [0] log | Net Cell Kill ([1]; 5FU 43 mg/kg alone, ip Days 2, 6, 10, listed as 5 FU): no log cell kill | % ILS [1, 22]: 44% | Net Cell Kill [1, 22]: [0] log | % ILS [1, 23]: 22% | Net Cell Kill [1, 23]: [0] log | toxicity at dose level ([1]; 5FU 200 mg/kg alone, ip Days 2, 6, 10): Toxic

Nc1ccn([C@@H]2O[C@H](CO)[C@@H](O)C2(F)F)c(=O)n1 [Gemcitabine, gemcitabine, reference compound]
MTD [4, 9]: ≥ 200 mg/kg | % ILS (increase in life span) [1, 24]: 289% | log cell kill (net cell kill) [1, 24]: > 7.3 log | efficacy at lower doses ([1]; gemcitabine alone at 120 mg/kg or less): less effective
